Assay results from patent US9822342B2, “Method of efficiently inducing cardiomyocytes” (KYOTO UNIVERSITY, priority 2013, dated 2017).

What was measured:
Assay type in all cases: cell-based, human
[1] = system: 427F1, 610B1, 604A1, 648A1 and KhES3 cell lines; assay: IW and IWDS methods, timing of dissociation/reaggregation (2); settings: IW method; dissociation at d2.5 to d4; evaluated at d15
Excerpt: (§1) In the modified method for inducing cardiomyocytes (IW) and the IWDS method described above, the timing of the dissociation into single cells and the reaggregation carried out on Day 4 was changed to investigate the effect of the change on pluripotent stem cell lines (KhES1 cell line, KhES3 cell line, MYH cell line, 409B2 cell line, 427F1 cell line, 606A1 cell line, 610B1 cell line, 457C1 cell line, 604A1 cell line, and 648A1 cell line) (FIG. 8). The culture from Day 1 in STEMPRO 34 supplemented with 1% L-glutamine, 150 μg/mL transferrin, 50 μg/mL ascorbic acid, 3.9×10^−3% MTG, 18 ng/mL BMP4, 10 ng/mL bFGF, and 12 ng/mL activin A was carried out for various periods within the range of 1.5 days to 5 days. Thereafter, dissociation and reaggregation of the obtained cells were carried out. That is, dissociation of each cell line was carried out at various times between Day 2.5 (d2.5) and Day 6 (d6) after the induction at intervals of 6 hours, followed by reaggregation culture.
(§2) In the last step, the cells of each cell line were cultured under normal oxygen concentration until d15 in STEMPRO 34 supplemented with 1% L-glutamine, 150 μg/mL transferrin, 50 μg/mL ascorbic acid, 3.9×10^−3% MTG, 10 ng/mL VEGF, and 5 ng/mL bFGF, and evaluated based on the content of cTNT-positive cells.

[2] = system: MYH, 409B2, 606A1, 457C1 and KhES1 cell lines; assay: as above; settings: IW method; dissociation at d2.5 to d5; evaluated at d15
Excerpt: as §1, §2

[3] = system: 201B7 cell line (iPS cells); assay: Modified method for inducing cardiomyocytes (IW); cTNT-positive cells by flow cytometry; settings: Day 20
Experimental: After treatment of the 201B7 cell line with CTK solution (ReproCELL) for 2 minutes, the solution was removed. Subsequently, the cells were treated with Accumax (Innovative Cell Technologies) for 5 minutes, and dissociated into single cells by pipetting. The cells were recovered by centrifugation, and plated on a low-adhesion 96-well dish (Corning) at 2500 cells/well. Culture was carried out at 37° C. under 5% oxygen in STEMPRO 34 supplemented with 1% L-glutamine, 150 μg/mL transferrin, 50 μg/mL ascorbic acid (Sigma), 3.9×10^−3% MTG, 10 μM Rock inhibitor, 2 ng/mL BMP4 (R&D), and 0.50% Matrigel (Growth Factor Reduced), to allow formation of EBs (Day 0). It was found, in this culture, that the efficiency of induction of cardiomyocytes decreases in cases where the EB cells are formed from not more than 1000 cells or not less than 4000 cells per well.
On the next day (Day 1), an equal volume of STEMPRO 34 supplemented with 1% L-glutamine, 150 μg/mL transferrin, 50 μg/mL ascorbic acid, 3.9×10^−3% MTG, 18 ng/mL BMP4, 10 ng/mL bFGF, and 12 ng/mL activin A was added to the 96-well plate in which the EBs were cultured, and culture was carried out at 37° C. under 5% oxygen for 3 days.
Subsequently (Day 4), the obtained EBs were allowed to naturally precipitate, and the medium was removed. […]
(§3) After the culture (Day 20), the obtained cells were evaluated. […]

[4] = system: 201B7 cell line (iPS cells); assay: Cardiomyocyte induction, conventional method (comparative example); cTNT-positive cells by flow cytometry; settings: Day 20; 1 μM IWP-3 with 10 ng/mL VEGF Day 4 to Day 8; no dissociation/reaggregation
Experimental: Three days before differentiation induction (Day −3), the 201B7 cell line was treated with Collagenase type B solution (Roche) for 5 minutes, and the solution was then removed, followed by treating the cells with 0.25% trypsin-EDTA (Invitrogen) for 2 to 3 minutes. After washing the cells with PBS solution (Nacalai Tesque), the obtained iPS cells were detached with a cell scraper and recovered. The iPS cells were then plated on a well of a Matrigel-coated 6-well plate, and cultured in MEF (mouse fetal fibroblast)-conditioned medium (MEF-CM) for 3 days.
Subsequently (Day 0), treatment with Collagenase type B solution was carried out for 10 minutes. After removing the solution, the iPS cells were treated with 0.25% trypsin-EDTA for 1 to 2 minutes, and then detached with a cell scraper. STEMPRO 34 (Invitrogen) supplemented with 1% L-glutamine (Invitrogen), 150 μg/mL transferrin (Roche), 50 μg/mL ascorbic acid (Sigma), 3.9×10^−3% MTG (1-Thyoglycerol) (Sigma), 10 μM Rock inhibitor (Y-27632, Wako), and 2 ng/mL BMP4 (R&D) was added to the cells, and the cells were then divided into small clusters by pipetting. The resulting cell clusters were transferred to a well of a low-adhesion […], and culture was carried out at 37° C. under 5% oxygen to prepare embryoid bodies (EBs). […]
as §3

Compound: Cc1ccc2nc(NC(=O)CSc3nc4c(c(=O)n3-c3ccc(F)cc3)SCC4)sc2c1 [IWP-3]
- efficiency of cardiomyocyte induction (content of cTNT-positive cells) [1]: high efficiency
- efficiency of cardiomyocyte induction (content of cTNT-positive cells) [2]: high efficiency
- content of cTNT-positive cells ([3]; dissociation/reaggregation on Day 4, 1 μM IWP-3 with 10 ng/mL VEGF for 4 days): 82.9%
- content of cTNT-positive cells ([3]; no dissociation into single cells on Day 4, medium with 1 μM IWP-3 and 10 ng/mL VEGF): 69.3%
- content of cTNT-positive cells [4]: 58.6%
